The results in this text go back to US20100204487A1, “PROCESS FOR MAKING THIOPHENE CARBOXAMIDE DERIVATIVES” (priority 2007, published 2010).

Data set [1] in a line: pharmacokinetics / bioavailability of free acid and salts of the compound of Formula I. Conditions: free acid.
The conditions of data set [2]: in vivo.

Where a name gives a salt, the structure may show the parent alone.

For `Cc1sc(C)c(C(=O)NC2(c3ccc(C(=O)O)cc3)CC2)c1Cc1ccc(C(F)(F)F)cc1` [free acid of Formula I], the bioavailability entry in data set [1] is recorded as “poorly bioavailable”.
Consider `Cc1sc(C)c(C(=O)NC2(c3ccc(C(=O)O)cc3)CC2)c1Cc1ccc(C(F)(F)F)cc1` [Et2NH salt, 4-{1-[({2,5-dimethyl-4-[4-(trifluoromethyl)benzyl]-3-thienyl}carbonyl)amino]cyclopropyl}benzoic acid diethylamine salt], for which the exposure entry in data set [2] was “doubled the exposure”.
